From article PMC9867347, “An Acid-Sensitive Bone Targeting Delivery System Carrying Acacetin Prevents Osteoporosis in Ovariectomized Mice” (Pharmaceuticals, 2022)
Ends that are not written are not given here.

What was measured:
[1] = statement of the design section, reference not given; cited from earlier work
Text: The next step is the identification of bone-targeting peptides. Bone tissue, as a special connective tissue, consists of a variety of cells and intercellular bone matrix, with high inorganic salt content which is mainly composed of HA. In recent years, more and more peptide sequences with excellent bone-targeting ability have been discovered. Compared with bone-targeting small molecules, these peptides have more specific mechanisms, high affinity and low side effects. Considering that acacetin has an excellent inhibitory effect on osteoclasts, we selected […] ...

[2] = test system: BMMs stimulated with RANKL and M-CSF; assay: Bone resorption assay (Osteo Assay Surface plate); format: cell-based, C57BL/6J mice
Method: In brief, the hind limbs of C57BL/6J mice were used to isolate bone marrow cells and cultured in α-MEM containing 10% FBS and 1% penicillin-streptomycin for one day to generate BMMs as described previously; 25 ng/mL M-CSF (416-ML-010/CF, R&D Systems, Minneapolis, MN, USA) and 50 ng/mL RANKL (462-TR-010/CF, R&D Systems, Minneapolis, MN, USA) were used for the preparation of osteoclasts.
Assays for bone resorption were performed using Corning Osteo Assay Surface plate (Sigma-Aldrich, Hongkong, China). We analyzed bone resorption pits with a light microscope and quantified pits area using Image J software (NIH, Bethesda, MD, USA).

[3] = test system: BMMs stimulated with RANKL and M-CSF; assay: TRAP staining, osteoclast differentiation; format: cell-based, C57BL/6J mice; details: 7 days
Method: In brief, the hind limbs of C57BL/6J mice were used to isolate bone marrow cells and cultured in α-MEM containing 10% FBS and 1% penicillin-streptomycin for one day to generate BMMs as described previously; 25 ng/mL […] Systems, Minneapolis, MN, USA) and 50 ng/mL […] Systems, Minneapolis, MN, USA) were used for the preparation of osteoclasts. […] TRAP-positive multinucleated osteoclasts (≥3 nuclei) were counted using a TRAP kit (Zhejiang Zhuoteng Biological, Shaoxing, China) according to the manufacturer's instructions. BMMs were induced by RANKL (50 ng/mL) and M-CSF (25 ng/mL) in the presence of acacetin (25 μM) and rapamycin (50 nmol/L) for 7 days. TRAP-positive multinucleated osteoclasts (≥3 nuclei) were counted.

OVX mice = assay: OVX mouse model of osteoporosis; format: in vivo, C57BL/6J mice; details: for anti-osteoporotic effects (OVX-induced bone loss; BMD and BV/TV, micro-CT of tibia): i.p. 5 mg/kg/3 day for 5 weeks
LC3II = assay: Western blotting, LC3II (autophagy); format: cell-based, C57BL/6J mice; details: BMMs, RANKL and M-CSF, 6 h
Method: (§1) RIPA lysate (50 × protease inhibitor, 50 × phosphatase inhibitor) was used to extract total protein from the cells. Then, 20 μg protein or protein marker per lane (PageRuler ™ (ThermoFisher Scientific, Waltham, MA, USA) Prestained Protein Ladder 10kD-180KD or HiMark™ (ThermoFisher Scientific, Waltham, MA, USA) Pre-stained Protein Standard 31 kd-460 kd) was loaded onto an SDS gel (30% Acrylamide, 1.5 M Tris-HCl, 10% SDS, 10% Ammonium persulfate and TEMED) and subjected to electrophoresis and transferred to a polyvinylidene fluoride membrane. The membrane was blocked with 5% BSA for 4 h and incubated with the specific primary antibody overnight at 4 °C. Then, the membrane was incubated with a secondary antibody (IRDye) for 1 h at room temperature. Bio-Rad ChemiDoc MP imaging system (Bio-Rad Laboratories, Hercules, CA, USA) was used to visualize protein bands and ImageJ software was used to calculate relative protein expression based on grayscale blots.
(§2) Antibodies including p-AKT (Ser473; #4060), AKT (#4691), LC3A/B Antibody (#4108), p-mTOR (Ser2448; #5536), mTOR (#2983), c-Fos (#2250), NFATc1 (#8032), p-PI3K (#4228), PI3K (#4249), and GAPDH (#5174) were purchased from Cell Signalling Technology (Denver, MA, USA).

c-Fos and NFATc1 = assay: Western blotting, c-Fos and NFATc1; format: cell-based, C57BL/6J mice; details: BMMs, RANKL and M-CSF, 3 days
Method: as §1, §2

[4] = Hydroxyapatite (HA) binding assay; details: 800 μM, 4 mM sodium phosphate, 150 mM sodium chloride, pH 7.4, 15 mg HA, 37 °C, 0-80 min, HPLC
Method: Acacetin-EMCH-D6 and acacetin were dissolved, respectively, in a buffer containing 4 mM sodium phosphate and 150 mM sodium chloride (pH = 7.4), to a final concentration of 800 μM; 15 mg of HA was added and incubated in a 37 °C water bath; 20 μL aliquots were taken after 0, 10, 20, 40, and 80 min and quantified by HPLC.

[5] = plasma, after intravenous administration; cited from earlier work
Text: (§3) Osteoporosis following the estrogen withdrawal of menopause is a serious global clinical problem with a significant increase in the risk of fractures. Supplementation of estrogen is not recommended for the long-term treatment of postmenopausal bone loss because of the increased risk of breast cancers and cardiovascular events. Pure compounds isolated from natural products are emerging as potential therapeutics for postmenopausal osteoporosis. Acacetin is a di-hydroxy and mono-methoxy flavone widely distributed in various plants including the Acacia tree, black locust, and ...

[6] = test system: ovariectomized (OVX) mice; details: 20 mg/kg/day for 8 weeks; ref 11 (Lin et al.); cited from earlier work
Text: as §3

[7] = test system: mRNA expression of TRAP, NFATc1, and CTSK; assay: RT-PCR of osteoclast genes; format: cell-based, C57BL/6J mice; details: BMMs, RANKL and M-CSF, 12.5, 25 μM, 3 days, n = 3
Method: The total RNA was extracted from cells or tissues using TRIzol reagent (Thermo Fisher Scientific, Waltham, MA, USA) according to the manufacturer’s instructions. PrimeScript^TM RT Master Mix (RR036Q, Takara, San Jose, CA, USA) was used to reverse transcribe 1 μg of total RNA extracted into complementary DNA (cDNA) for subsequent RT-PCR reactions using qTOWER real-time PCR thermal cycler (Analytik Jena, Jena, Germany).

PI3K/AKT/mTOR pathway = assay: Western blotting, PI3K/AKT/mTOR phosphorylation; format: cell-based, C57BL/6J mice; details: BMMs, RANKL and M-CSF, acacetin 25 μM, 6 h, n = 3
Method: as §1, §2

BMMs = assay: Cytotoxicity assay (CCK-8); format: cell-based, C57BL/6J mice; details: 48 h and 96 h, CCK-8, n = 6
Method: In brief, the hind limbs of C57BL/6J mice were used to isolate bone marrow cells and cultured in α-MEM containing 10% FBS and 1% penicillin-streptomycin for one day to generate BMMs as described previously; 25 ng/mL […] Systems, Minneapolis, MN, USA) and 50 ng/mL […] Systems, Minneapolis, MN, USA) were used for the preparation of osteoclasts. […] The medium was changed every 2 days. After 48 h and 96 h of culture, CCK8 reagent (10 μL/well, Dojindo, Kumamoto, Japan) was added to each well. Then, the cells were incubated in darkness at 37 °C for 2 h. The absorbance was recorded using a microplate reader (Thermo Fisher Scientific, Waltham, MA, USA) at 450 nm.

[8] = Acacetin-EMCH-D6 17.5 μmol/kg and rapamycin 1 mg/kg i.p. every 3 days, 5 weeks, at least in part
[9] = Acacetin-EMCH-D6 17.5 μmol/kg and rapamycin 1 mg/kg i.p. every 3 days, 5 weeks, proximal tibia
[10] = acacetin 25 μM and rapamycin 50 nmol/L
[11] = i.p. 17.5 μmol/kg every 3 days for 5 weeks
[12] = i.p. 17.5 μmol/kg every 3 days for 5 weeks, n = 6

Compound: DDDDDD [D6, medium-length polyaspartic acid, bone targeting peptide]
- HA affinity [1]: comparable to tetracycline and calcein

Compound: CO[C@H]1C[C@@H]2CC[C@@H](C)[C@@](O)(O2)C(=O)C(=O)N2CCCC[C@H]2C(=O)O[C@H]([C@H](C)C[C@@H]2CC[C@@H](O)[C@H](OC)C2)CC(=O)[C@H](C)/C=C(\C)[C@@H](O)[C@@H](OC)C(=O)[C@H](C)C[C@H](C)/C=C/C=C/C=C/1C [rapamycin]
- effect of rapamycin co-treatment on inhibition of bone resorption by acacetin ([2]; RANKL and M-CSF, acacetin 25 μM and rapamycin 50 nmol/L, 3 days): partly reversed
- effect of rapamycin co-treatment on inhibition of osteoclast differentiation by acacetin (TRAP assay) ([3]; RANKL and M-CSF, acacetin 25 μM and rapamycin 50 nmol/L): partly reversed
- effect of rapamycin co-treatment on BMD augmentation by Acacetin-EMCH-D6 (OVX mice; [8]): reversed
- effect of rapamycin co-treatment on BV/TV augmentation by Acacetin-EMCH-D6 (OVX mice; [8]): reversed
- effect of rapamycin co-treatment on Tb.N augmentation by Acacetin-EMCH-D6 (OVX mice; [8]): reversed
- effect of rapamycin co-treatment on Tb.Sp reduction by Acacetin-EMCH-D6 (OVX mice; [8]): reversed
- effect of rapamycin co-treatment on reduction of LC3 dots by Acacetin-EMCH-D6 (OVX mice; [9]): partly reversed
- effect of rapamycin co-treatment on reduction of TRAP-positive osteoclasts by Acacetin-EMCH-D6 (OVX mice; [9]): partly reversed
- effect of rapamycin co-treatment on inhibition of LC3II protein levels by acacetin (LC3II; [10]): abolished
- effect of rapamycin co-treatment on downregulation of NFATc1 protein by acacetin (c-Fos and NFATc1; [10]): partially reversed
- effect of rapamycin co-treatment on downregulation of c-Fos protein by acacetin (c-Fos and NFATc1; [10]): partially reversed

Compound: COc1ccc(-c2cc(=O)c3c(O)cc(O)cc3o2)cc1 [acacetin]
- area of bone resorption pits ([2]; RANKL 50 ng/mL and M-CSF 25 ng/mL, 12.5, 25 μM added for 3 days after immature osteoclasts formed, n = 3): significantly diminished
- binding to hydroxyapatite (HA) [4]: very weak binding
- terminal half-life [5]: 1.48 h
- bone loss in ovariectomized (OVX) mice [6]: protected against bone loss
- mRNA expression of CTSK [7]: suppressed
- mRNA expression of NFATc1 [7]: suppressed
- mRNA expression of TRAP [7]: suppressed
- number of TRAP-positive osteoclasts (nuclei ≥ 3) ([3]; RANKL 50 ng/mL and M-CSF 25 ng/mL, 12.5, 25 μM, n = 3): significantly diminished
- RANKL+M-CSF-induced reduction of AKT phosphorylation (PI3K/AKT/mTOR pathway): reversed
- RANKL+M-CSF-induced reduction of PI3K phosphorylation (PI3K/AKT/mTOR pathway): reversed
- RANKL+M-CSF-induced reduction of mTOR phosphorylation (PI3K/AKT/mTOR pathway): reversed
- BMD, proximal tibia and L5 vertebra (micro-CT), OVX-induced change (OVX mice; [11]): no significant effect
- BV/TV, proximal tibia and L5 vertebra (micro-CT), OVX-induced change (OVX mice; [11]): no significant effect
- Tb.N, proximal tibia and L5 vertebra (micro-CT), OVX-induced change (OVX mice; [11]): no significant effect
- Tb.Sp, proximal tibia and L5 vertebra (micro-CT), OVX-induced change (OVX mice; [11]): no significant effect
- number of TRAP-positive cells, proximal tibia (OVX-induced increase) (OVX mice; [11]): did not affect the histological changes
- plasma CTX-1 levels (OVX mice; [12]): no significant effect
- trabecular density and thickness, proximal tibia (H&E staining) (OVX mice; [12]): did not affect the histological changes
- anti-osteoporotic effects (OVX-induced bone loss; BMD and BV/TV, micro-CT of tibia) (OVX mice; n = 6, Figure S1, 5 mg/kg): did not observe its anti-osteoporotic effects
- anti-osteoporotic effects (OVX-induced bone loss; BMD and BV/TV, micro-CT of tibia) (OVX mice; n = 6, Figure S1, listed as Acacetin, 5 mg/kg): no effect on OVX-induced bone loss
- RANKL+M-CSF-induced increase of LC3II protein levels (LC3II; acacetin 25 μM, n = 3): reversed
- cell viability (BMMs; dose more than 50 μM): reduced cell viability
- cell viability (BMMs; dose of 6.25, 12.5, and 25 μM): did not affect cell viability
- protein expression of NFATc1 (c-Fos and NFATc1; acacetin 25 μM): downregulated
- protein expression of c-Fos (c-Fos and NFATc1; acacetin 25 μM): downregulated
